According to paper PMC6300130 (Journal of medicinal chemistry, 2018):
Where “and” joins values, the source holds several entries; their conditions need not be identical. Identical values can stand only once. Like-named read-outs stand apart in the source and are kept apart here.

Assays:
P. falciparum strain 3D7 [1] = details: cited from earlier work
[2] = test system: P. falciparum had1 mutant strain; details: cited from earlier work
HepG2 cells = assay: HepG2 cytotoxicity; assay type: cell-based, human; details: HepG2 IC50/P. falciparum IC50
P. falciparum strain 3D7 [3] = assay: IPP rescue of inhibitor-treated P. falciparum; assay type: cell-based, Plasmodium falciparum; details: 125 μM IPP, 72 h
[4] = test system: P. falciparum had1 mutant strain; assay: Growth inhibition of had1 mutant P. falciparum; assay type: cell-based, Plasmodium falciparum; details: for sensitivity in had1 + HAD1-GFP strain: mutant supplied with wild-type copy of HAD1
[5] = test system: MEP pathway metabolites in P. falciparum 3D7 parasites; assay: MEP pathway metabolite profiling by LC-MS/MS; assay type: cell-based, Plasmodium falciparum; details: 5× the IC50 value, 10 h
[6] = Tolerability in mice during efficacy study; assay type: in vivo, mouse; details: 20 and 50 mg/kg ip daily for 5 days
[7] = test system: Mycobacterium tuberculosis (Mtb) DXR; details: cited from earlier work
Mtb = details: cited from earlier work
[8] = cited from earlier work

O=CN(O)CCCP(=O)([O-])O.[Na+] [1a, Fosmidomycin]
rescue of growth by exogenous IPP (P. falciparum strain 3D7 [1]): restoration effect
resistance of had1 parasites [2]: resistant

O=CN(O)C/C=C/P(=O)([O-])O.[Na+] [12a, Sodium Hydrogen [(1E)-3-(N-Hydroxyformamido)prop-1-en-1-yl]phosphonate]
SI^Pf selectivity index (HepG2 cells): > 2632
rescue of growth by exogenous IPP (P. falciparum strain 3D7 [3]): effectively rescues growth
sensitivity in had1 + HAD1-GFP strain [4]: restored

CC(=O)N(C/C=C/P(=O)([O-])O)OCc1ccc(C(C)C)cc1.[Na+] [16e]
rescue of growth by exogenous IPP (P. falciparum strain 3D7 [3]): restored by IPP supplementation
resistance of had1 parasites compared with wild-type ([4]; words): more resistant

CC(C)(C)C(=O)OCOP(=O)(/C=C/CN(O)C=O)OCOC(=O)C(C)(C)C [18a, [({[(2,2-Dimethylpropanoyl)oxy]methoxy}[(1E)-3-(N-hydroxyformamido)prop-1-en-1-yl]phosphoryl)oxy]methyl 2,2-Dimethylpropanoate]
rescue of growth by exogenous IPP (P. falciparum strain 3D7 [3]): effectively rescues growth
DOXP level, treated vs untreated parasites [5]: did not show significant difference
sensitivity in had1 + HAD1-GFP strain [4]: restored
tolerability in mice [6]: no adverse effects were observed

CC(=O)N(O)C/C=C/P(=O)([O-])O.[Na+] [compound 2]
increase in potency against Mtb DXR compared with FR900098 [7]: 2 fold
IC50 ([7]; read-out: Mtb DXR IC50): 1070 nM

CC(=O)N(O)C/C=C/P(=O)(OCOC(=O)C(C)(C)C)OCOC(=O)C(C)(C)C [compound 3]
Mtb MIC99 (Mtb): 9.4 μg/mL and 22 μM
in vivo antimalarial activity [8]: potent in vivo antimalarial activity

CC(=O)N(CCCP(=O)(OCOC(=O)C(C)(C)C)OCOC(=O)C(C)(C)C)OCc1ccc2ccccc2c1 [compound 5]
Mtb MIC99 (Mtb): 18.75 μg/mL and 33.2 μM
